Assay results from PubChem BioAssay (NCI).
“And” between values parts separate entries of the source, which are not always exact repeats. Equal values may be shown once.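 All cell lines were grown in 96-well plates and treated with compound for 48 hours. Abbreviation: GI50, concentration required for 50% inhibition of growth. At the TGI there is no net growth.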

Key:
Test in all cases: inhibition of tumour cell growth, NCI panel, 48 h
TK-10 renal = test system: TK-10 renal
SK-OV-3 ovarian = test system: SK-OV-3 ovarian
OVCAR-5 ovarian = test system: OVCAR-5 ovarian
SNB-19 CNS = test system: SNB-19 CNS
LOX IMVI melanoma = test system: LOX IMVI melanoma
SNB-75 CNS = test system: SNB-75 CNS
OVCAR-8 ovarian = test system: OVCAR-8 ovarian
RPMI-8226 leukemia = test system: RPMI-8226 leukemia
A498 renal = test system: A498 renal
HT29 colon = test system: HT29 colon

SMILES | GI50 (TK-10 renal) [µM] | TGI (TK-10 renal) | GI50 (SK-OV-3 ovarian) [µM] | TGI (SK-OV-3 ovarian) | GI50 (OVCAR-5 ovarian) [µM] | TGI (OVCAR-5 ovarian) | GI50 (SNB-19 CNS) [µM] | TGI (SNB-19 CNS) | GI50 (LOX IMVI melanoma) [µM] | TGI (LOX IMVI melanoma) | GI50 (SNB-75 CNS) [µM] | TGI (SNB-75 CNS) [µM] | GI50 (OVCAR-8 ovarian) [µM] | TGI (OVCAR-8 ovarian) | GI50 (RPMI-8226 leukemia) [µM] | TGI (RPMI-8226 leukemia) [µM] | GI50 (A498 renal) [µM] | TGI (A498 renal) | GI50 (HT29 colon) [µM] | TGI (HT29 colon)
O=C(Nc1ccc(-n2cc(-c3ccncc3)c(-c3ccc(Cl)c(O)c3)n2)cc1)c1cc(C(F)(F)F)cc(C(F)(F)F)c1 | 7.55 | 23 µM | 2.01 | 6.98 µM | 21.4 | > 100 µM | 8.79 | > 100 µM | 2.54 | 10.4 µM | 2.82 | 28.2 | 6.54 | 34.8 µM | 3.86 | > 100 | 14.8 | 35 µM | 3.43 | 28.9 µM
CN1CCCc2nc3ccccc3n2C1 |  | > 100 µM |  | > 100 µM |  | > 100 µM |  | > 100 µM |  | > 100 µM |  | > 100 |  | > 100 µM |  | 68.8 |  | > 100 µM |  | > 100 µM
O=C(Nc1nc(=S)[nH][nH]1)C(=O)C(c1cnc2ccc([N+](=O)[O-])cc2n1)[N+](=O)[O-] (configuration not stated) |  | > 100 µM |  | > 100 µM |  | > 100 µM |  | > 100 µM |  | > 100 µM |  | > 100 |  | > 100 µM |  | > 100 |  | > 100 µM |  | > 100 µM
O=C1Nc2ccc(-c3cccnc3)cc2/C1=C/c1cc(Br)c(O)c(Br)c1 | 7.82 | 24.3 µM | 8.11 | 24.9 µM | 15.6 | > 25 µM | 9.11 | > 25 µM | 4.99 | > 25 µM | > 13 | > 25 | 9.89 | > 25 µM | 5.38 | 19.7 | 3.86 | 11.5 µM | 7.06 | > 25 µM
COc1ccc([C@@]23Oc4cc(OC)cc(OC)c4[C@]2(O)[C@H](O)[C@H](C(=O)N(C)C)[C@H]3c2ccccc2)cc1 | 0.0484 | 0.0531 µM and 0.15 µM and 0.435 µM | 0.0157 |  | 0.0116 | 0.0626 µM and 0.0694 µM and 0.0417 µM | 0.0113 | 1.37 µM and 0.159 µM |  | 0.0189 µM and 0.0225 µM | 0.0149 |  | 0.0208 | 0.244 µM and 0.236 µM and 0.488 µM | 0.0164 |  | 0.0155 | 0.0234 µM and 0.00719 µM and 0.0403 µM |  | 
Cc1cc(OC2OC(CO)C(O)C(O)C2O)ccc1O (configuration not stated) |  | > 100 µM |  | > 100 µM |  | > 100 µM |  | > 100 µM |  | > 100 µM |  | > 100 |  | > 100 µM |  | > 100 |  | > 100 µM |  | > 100 µM
CCc1c(OC(C)=O)c2c(NC3OC(COC(C)=O)C(OC(C)=O)C(OC(C)=O)C3OC(C)=O)nc(SC)nc2oc1=O (configuration not stated) |  | > 100 µM |  | > 100 µM |  | > 100 µM |  | > 100 µM |  | > 100 µM |  | > 100 |  | > 100 µM |  | > 100 |  | > 100 µM |  | > 100 µM
Nc1nc(-c2ccccc2)c(CC(=O)O)s1 |  | > 100 µM |  | > 100 µM |  | > 100 µM |  | > 100 µM |  | > 100 µM |  | > 100 |  | > 100 µM |  | > 100 |  | > 100 µM |  | > 100 µM
CCC(Oc1ccc(OC)c2c1C(=O)CCC2)C(=O)O (configuration not stated) |  | > 100 µM |  | > 100 µM |  | > 100 µM |  | > 100 µM |  | > 100 µM |  | > 100 |  | > 100 µM |  | > 100 |  | > 100 µM |  | > 100 µM
O=C([O-])c1ccc([I+]c2ccccc2)cc1 |  | > 100 µM |  | > 100 µM |  | > 100 µM |  | > 100 µM |  | > 100 µM |  | > 100 |  | > 100 µM |  | > 100 |  | > 100 µM |  | > 100 µM
O=C(CCCCN1CCN(CCCCC(=O)Nc2ccccc2C#C/C=C\C#Cc2ccccc2C(F)(F)F)CC1)Nc1ccccc1C#C/C=C\C#Cc1ccccc1C(F)(F)F | 16.6 | 36 µM | 18.7 | > 50 µM | 14.4 | > 50 µM | 11.7 | 32.1 µM | 10.1 | 20.2 µM | 10.3 | 26.9 | 12.2 | 28.5 µM | 7.46 | 19.1 | 11.7 | 22.9 µM | 7.11 | 26.2 µM
O=[N+]([O-])/C=C/c1ccc2ccccc2c1 |  | 25.8 µM |  | 9.22 µM |  | > 30.1 µM |  | 5.13 µM |  | 7.81 µM |  | 5.17 |  | > 21.2 µM |  | > 100 |  | 25.7 µM |  | 
Nc1c(C(=O)Nc2ccccc2)sc2nc3c(cc12)C(=O)CCC3 | 0.807 | > 100 µM | 0.412 | > 100 µM | 1.28 | > 100 µM | 0.73 | > 100 µM |  | > 100 µM | 0.494 | > 88.7 | 2.46 | > 100 µM | 0.303 | > 100 | 0.282 |  | 0.354 | 
COc1cccc(-c2cc(=O)c3cc(N4CCN(C)CC4)ccc3[nH]2)c1 | 13.5 | 94.6 µM | 3.84 | 9.29 µM and 87.2 µM | 6.24 | > 100 µM |  | 8.41 µM | 2.11 |  | 0.612 | 65.1 | 1.78 | 4.99 µM and 6.39 µM | 1.93 | 6.11 |  | 5.32 µM | 1.78 | 5.68 µM and 5.83 µM
CCCCCCCCCCCCCCCC(=O)OCC1OC(n2cc(F)c(=O)[nH]c2=O)C(NC(=O)OCc2ccccc2)C(O)C1O (configuration not stated) |  | 43 µM |  | 66 µM |  | 39.8 µM |  | 32.4 µM |  | 32.5 µM |  | 37.5 |  | 37.2 µM |  | 39.3 |  | 35.5 µM |  | 36.2 µM
O=C(CI)NC(=O)NC(=O)NCc1ccccc1 | 1.86 | 4.12 µM | 15.4 | 29 µM | 2.98 | 10.8 µM | 13 | 31.9 µM | 1.44 | 3 µM | 11.3 | 29.2 | 4.32 | 19.6 µM | 3.2 | 9.71 | 15.9 | 30.9 µM | 2.66 | 6.72 µM
O=C1C=CC2(CCC23C=CC(=O)O3)O1 (configuration not stated) |  | > 100 µM |  | > 100 µM |  | > 100 µM |  | > 100 µM |  | > 100 µM |  | > 100 |  | > 100 µM |  | > 100 |  | > 100 µM |  | > 100 µM
